Where a name gives a salt, the structure may show the parent alone. Read-outs that look alike come from different tables or passages of the source.
Experiments:
[1] = target: MCL-1 (Homo sapiens, UniProt Q07820); assay: Protein-protein interaction assay MCL-1/Noxa BH3 peptide (MCL-1 assay), TR-FRET; assay type: binding; details: MBP-MCL-1 / Noxa BH3-derived peptide, median
In short: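 TR-FRET, 665/622 nm emission ratio (excitation 330–350 nm), measured MCL-1/Noxa complex formation. 1 nM MBP-MCL-1, 50 mM Tris/HCl pH 7, 0.1% BGG, 2 mM DTT. Incubation 1 h at 22 °C, then overnight at 4 °C. IC50 by 4-parameter regression, normalized to DMSO (0%) and no-MCL-1 (100%) controls.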

[2] = test system: SUDHL5; assay: Induction of caspase-3/7 activity (Caspase-Glo 3/7), SUDHL5; assay type: cell-based; details: caspase-3/7 induction, SUDHL5 cells, 3 h treatment, median
In short: (§1)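 DLBCL cells treated with compounds for 3 h at 37 °C, then caspase-3/7 activity read by Caspase-Glo 3/7 luminescence. Medium-only background subtracted; EC50 fitted with C0 fixed at 1 and top set to the reference compound's maximal induction.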

[3] = test system: SUDHL10; assay: Induction of caspase-3/7 activity (Caspase-Glo 3/7), SUDHL10; assay type: cell-based; details: caspase-3/7 induction, SUDHL10 cells, 3 h treatment, median
In short: as §1

[4] = test system: SUDHL5; assay: Anti-proliferative effect (CellTiter-Glo, 72 h), SUDHL5; assay type: cell-based; details: SUDHL5 cells, antiproliferation, median, read-out: Antiproli SUDHL5 [M] (median)
In short: (§2)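 Cells were treated with compounds for 72 h at 37 °C in a humidified incubator, and viability was measured by CellTiter-Glo luminescence. A parallel day 0 plate, read the same way, gave the time zero baseline.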

[5] = test system: SUDHL10; assay: Anti-proliferative effect (CellTiter-Glo, 72 h), SUDHL10; assay type: cell-based; details: SUDHL10 cells, antiproliferation, median, read-out: Antiproli SUDHL10 [M] (median)
In short: as §2

[6] = test system: A2780; assay: Anti-proliferative effect (CellTiter-Glo, 72 h), A2780; assay type: cell-based; details: A2780 cells, median, read-out: IC50 antiproliferation assay A2780 [M] (median)
In short: as §2

[7] = test system: SUDHL5; assay: Induction of cytotoxicity (CellTiter-Glo, 5 h), SUDHL5
[8] = test system: SUDHL10; assay: Induction of cytotoxicity (CellTiter-Glo, 5 h), SUDHL10
[9] = read-out: Cytotox SUDHL5 [M] (median), SUDHL5 cells, cytotoxicity induction, CellTiter-Glo, 5 h incubation, median
[10] = read-out: Cytotox SUDHL10 [M] (median), SUDHL10 cells, cytotoxicity induction, CellTiter-Glo, 5 h incubation, median
[11] = Homo sapiens, SU-DHL-5, 72 h, 72 h incubation
[12] = Homo sapiens, SU-DHL10, 72 h, 72 h incubation
[13] = Homo sapiens, SU-DHL-5, 5 h, read-out: Cytotox SUDHL5 [M] (median), SUDHL5 cells, cytotoxicity induction, CellTiter-Glo, 5 h incubation, median
[14] = Homo sapiens, SU-DHL10, 5 h, read-out: Cytotox SUDHL10 [M] (median), SUDHL10 cells, cytotoxicity induction, CellTiter-Glo, 5 h incubation, median
[15] = Homo sapiens, SU-DHL-5, 72 h, 72 h
[16] = Homo sapiens, SU-DHL10, 72 h, 72 h
[17] = Homo sapiens, SU-DHL-5, 5 h, read-out: Cytotox SUDHL5 [M] (median), SUDHL5 cells, cytotoxicity induction, CellTiter-Glo, 5 h, median
[18] = Homo sapiens, SU-DHL10, 5 h, read-out: Cytotox SUDHL10 [M] (median), SUDHL10 cells, cytotoxicity induction, CellTiter-Glo, 5 h, median

MCL-1, sequence (Q07820 whole entry): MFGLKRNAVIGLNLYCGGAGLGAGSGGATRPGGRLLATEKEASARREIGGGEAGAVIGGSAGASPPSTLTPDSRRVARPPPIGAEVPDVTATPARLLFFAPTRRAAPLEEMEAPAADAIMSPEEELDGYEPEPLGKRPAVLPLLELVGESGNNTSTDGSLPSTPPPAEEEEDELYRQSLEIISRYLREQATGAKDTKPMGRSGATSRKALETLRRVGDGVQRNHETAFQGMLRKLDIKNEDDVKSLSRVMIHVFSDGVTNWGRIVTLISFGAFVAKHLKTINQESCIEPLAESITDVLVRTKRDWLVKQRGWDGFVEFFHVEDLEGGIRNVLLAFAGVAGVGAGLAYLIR

Structure (SMILES)	IC50 [1] [nM]	IC50 [6] [M]	EC50 ([2]; Homo sapiens, SU-DHL-5, 3 h) [µM]	EC50 ([3]; Homo sapiens, SU-DHL10, 3 h) [µM]	IC50 [4, 11] [M]	IC50 [5, 12] [M]	IC50 ([6]; Homo sapiens, A2780, 72 h) [M]	IC50 [7, 13] [M]	IC50 [8, 14] [M]	further results
COCc1nn(C)c2c1-c1cccc3c(CCCOc4cccc5ccccc45)c(C(=O)O)n(c13)CCCCN(C)C2 (single isomer, unassigned; enantiomer 2) [Example 185, 3-(methoxymethyl)-1,14-dimethyl-7-[3-(naphthalen-1-yloxy)propyl]-10,11,12,13,14,15-hexahydro-1H-pyrazolo[3′,4′:8,9][1,6]diazacycloundecino[10,11,1-hi]indole-8-carboxylic acid —N-ethylethanamine Salt (Enantiomer 2)]	211	1.88e-05								EC50 [2]: > 33 µM; EC50 [3]: > 33 µM; IC50 ([4]; 72 h incubation): 1.98e-05 M; IC50 ([5]; 72 h incubation): 8.53e-06 M; IC50 [7, 9]: 2.75e-05 M; IC50 [8, 10]: > 3.3e-05 M
CC(=O)NCc1nn(C)c2c1-c1cccc3c(CCCOc4cccc5ccccc45)c(C(=O)O)n(c13)CCCCOC2 (single isomer, unassigned; enantiomer 2) [Example 341, 3-[(acetylamino)methyl]-1-methyl-7-[3-(naphthalen-1-yloxy)propyl]-1,10,11,12,13,15-hexahydropyrazolo[4′3′:9,10][1,6]oxazacycloundecino[8,7,6-hi]indole-cararboxylic Acid (Enantiomer 2)]	651	> 3.3e-05								EC50 [2]: > 33 µM; EC50 [3]: > 33 µM; IC50 ([4]; 72 h): 6.48e-06 M; IC50 ([5]; 72 h): > 3.3e-05 M; IC50 ([7]; read-out: Cytotox SUDHL5 [M] (median), SUDHL5 cells, cytotoxicity induction, CellTiter-Glo, 5 h, median): 2.64e-05 M; IC50 ([8]; read-out: Cytotox SUDHL10 [M] (median), SUDHL10 cells, cytotoxicity induction, CellTiter-Glo, 5 h, median): > 3.3e-05 M
Cn1nc(COC2CC2)c2c1COCCCCn1c(C(=O)O)c(CCCOc3cccc4ccccc34)c3cccc-2c31 (racemic) [Example 213, (rac)-3-[(cyclopropyloxy)methyl]-1-methyl-7-[3-(naphthalen-1-yloxy)propyl]-1,10,11,12,13,15-hexahydropyrazolo[4′3′:9,10][1,6]oxazacycloundecino[8,7,6,6-hi]indole-8-carboxylic Acid]	13.4		> 33	> 33	2.49e-06	5.12e-06	2.91e-05	> 3.3e-05	> 3.3e-05	
CN1CCCn2c(C(=O)O)c(CCCOc3cccc4ccccc34)c3cccc(c32)-c2c(nn3c2CCCC3)C1 (racemic) [Example 361, (rac)-7-methyl-1-[3-(naphthalen-1-yloxy)propyl]-5,6,7,8,11,12,13,14-octahydro-4H-pyrido[1″,2″:1′,5′]pyrazolo[3′,4′:7,8][1,5]diazecino[9,10,1-hi]indole-2-carboxylic Acid]	24.8		10.1	> 33			> 3.3e-05			IC50 [4, 15]: 3.66e-06 M; IC50 [5, 16]: 7.7e-06 M; IC50 [7, 17]: 1.09e-05 M; IC50 [8, 18]: 1.84e-05 M
Cn1ccnc1COCc1nn(C)c2c1-c1cccc3c(CCCOc4cccc5ccccc45)c(C(=O)O)n(c13)CCCCOC2 (racemic) [Example 231, (rac)-1-methyl-3-{[(1-methyl-1H-imidazol-2-yl)methoxyl]methyl}-7-[3-(naphthalen-1-yloxy)propyl]-1,10,11,12,13,15-hexahydropyrazolo[4′,3′:9,10][1,6]oxazacycloundecino[8,7,6-hi]indole-8-carboxylic Acid]	26.2		17.3	16.1	8.1e-06	1.14e-05	> 3.3e-05	1.33e-05	1.6e-05	
Cc1nn(C)c2c1-c1cccc3c(CCCOc4cccc5ccccc45)c(C(=O)O)n(c13)CCCOC2 (racemic) [Example 043, (rac)-9,11-dimethyl-1-[3-(naphthalen-1-yloxy)propyl]-5,6,8,9-tetrahydro-4H-pyrazolo[4′,3′:8,9][(1,5]oxazecino[7,6,5-hi]indole-2-carboxylic Acid]	12.7	2.6e-05	18.7	> 33	1.05e-05	4.93e-06	> 3.3e-05	1.79e-05	> 3.3e-05	
CCc1c2c(nn1CCN1CCOCC1)COCCCCn1c(C(=O)O)c(CCCOc3cccc4ccccc34)c3ccc(C)c-2c31 (racemic) [Example 204, (rac)-3-ethyl-4-methyl-2-[2-(morpholin-4-yl)ethyl]-7-[3-(naphthalen-1-yloxy)propyl]-2,10,11,12,13,15-hexahydropyrazolo[4′,3′:9,10][1,6]oxazacycloundecino[8,7,6-hi]indole-8-carboxylic Acid]	3.75		1.73	6.09	4.17e-06	5.15e-06	1.78e-05	1.9e-06	5.63e-06	
CCc1c2c(nn1CCN1CCOCC1)COCCCCn1c(C(=O)O)c(CCCOc3cccc4ccccc34)c3cccc-2c31 (single isomer, unassigned; enantiomer 1) [Example 202, 3-ethyl-2-[2-(morpholin-4-yl)ethyl]-7-[3-(naphthalen-1-yloxy)propyl]-2,10,11,12,13,15-hexahydropyrazolo[4′,3′:9,10][1,6]oxazacycloundecino[8,7,6,6-hi]indole-8-carboxylic Acid (Enantiomer 1)]	46.2						3.17e-05			EC50 [2]: 30.2 µM; EC50 [3]: > 33 µM; IC50 ([4]; 72 h incubation): 2.52e-05 M; IC50 ([5]; 72 h incubation): 1.74e-05 M; IC50 [7, 9]: > 3.3e-05 M; IC50 [8, 10]: 2.87e-05 M
Cc1nn(C)c2c1-c1cccc3c(CCCOc4cccc5cc(F)ccc45)c(C(=O)O)n(c13)CCCOC2 (racemic) [Example 046, (rac)-1-{3-[(6-fluoronaphthalen-1-yl)oxy]propyl}-9,11-dimethyl-5,6,8,9-tetrahydro-4H-pyrazolo[4′,3′:8,9][1,5]oxazecino[7,6,5-hi]indole-2-carboxylic Acid]	10.8		5.7	17	6.27e-06	3.94e-06	2.65e-05	6.09e-06	2.33e-05	
O=C(O)c1c(CCCOc2cccc3ccccc23)c2cccc3c2n1CCCCOCc1nn2c(c1-3)OCCC2 (racemic) [Example 247, (rac)-1-[3-(naphthalen-1-yloxy)propyl]-4,5,6,7,13,14-hexahydro-9H,12H-[1,3]oxazino[3″,2″: 1′,5′]pyrazolo[4′,3′:9,10][1,6]oxazacycloundecino[8,7,6-hi]indole-2-carboxylic Acid]	6.15	> 3.3e-05	5.21	17.3	5.26e-06	9.3e-06	3.04e-05	6.79e-06	1.9e-05	
Cn1nc(CN2CCCCC2)c2c1COCCCCn1c(C(=O)O)c(CCCOc3cccc4ccccc34)c3cccc-2c31 (racemic) [Example 332, (rac)-1-methyl-7-[3-(naphthalen-1-yloxy)propyl]-3-(piperidin-1-ylmethyl)-1,10,11,12,13,15-hexahydropyrazolo[4′,3′:9,10][1,6]oxazacycloundecino[8,7,6-hi]indole-8-carboxylic Acid]	203		18.9	> 33			> 3.3e-05			IC50 [4, 15]: 9.13e-06 M; IC50 [5, 16]: 2.02e-05 M; IC50 [7, 17]: 1.94e-05 M; IC50 [8, 18]: > 3.3e-05 M

From patent publication US10981932B2, “Macrocyclic indole derivatives” (Bayer Aktiengesellschaft, priority 2016, dated 2021)
